Patent publication US8592422B2, “Bicyclic triazole and pyrazole lactams as allosteric modulators of mGluR5 receptors” (Vanderbilt University, priority 2010, dated 2013)

Biological target: T1, human mGluR5a receptor (Homo sapiens, UniProt P41594)
T1 construct: cDNA subcloned into pcDNA3.1(-)
Test: Cell-based functional Ca2+ mobilization assay (FDSS), potentiation of glutamate EC20 response
Details: for pEC50 / EC50: HEK cells transfected with human mGluR5 (H10H or H12H), in presence of EC20 glutamate; for EC50: read-out: EC50; for Emax (%) / Emax: maximum % effect in concentration-response curve, as percent of response to maximally effective glutamate
Method: Human embryonic kidney (HEK) cells transfected with rat mGluR5 were plated in clear bottom assay plates for assay in a Functional Drug Screening System (FDSS). In the alternative assay, HEK cells transfected with human mGluR5 were plated for assay in the FDSS. In some cases the HEK cells transfected with human mGluR5 were the H10H cell line. Alternatively, the HEK cells transfected with human mGluR5 were the H12H cell line. […] The cells were loaded with a Ca^2+-sensitive fluorescent dye (e.g., Fluo-4), and the plates were washed and placed in the FDSS instrument. After establishment of a fluorescence baseline for twelve seconds, the compounds of the present invention were added to the cells, and the response in cells was measured. Alternatively, in various further aspects, after establishment of a fluorescence baseline for about three seconds, the compounds of the present invention were added to the cells, and the response in cells was measured. Five minutes later, an mGluR5 agonist (e.g., glutamate, 3,5-dihydroxyphenylglycine, or quisqualate) was added to the cells, and the response of the cells was measured.
The above described assay operated in two modes. In the first mode, a range of concentrations of the present compounds were added to cells, followed by a single fixed concentration of agonist. If a compound acted as a potentiator, an EC50 value for potentiation and a maximum extent of potentiation by the compound at this concentration of agonist was determined by non-linear curve fitting. In the second mode, several fixed concentrations of the present compounds were added to various wells on a plate, followed by a range of concentrations of agonist for each concentration of present compound; the EC50 values for the agonist at each concentration of compound were determined by non-linear curve fitting. A decrease in the EC50 value of the agonist with increasing concentrations of the present compounds (a leftward shift of the agonist concentration-response curve) is an indication of the degree of mGluR5 potentiation at a given concentration of the present compound. An increase in the EC50 value of the agonist with increasing concentrations of the present compounds (a rightward shift of the agonist concentration-response curve) is an indication of the degree of mGluR5 antagonism at a given concentration of the present compound. The second mode also indicates whether the present compounds also affect the maximum response to mGluR5 to agonists.
The mGluR5 activity was determined using the metabotropic glutamate receptor activity assays in human embryonic kidney cells as described herein, wherein the human embryonic kidney cells were transfected with human mGluR5. The compounds in Table 1 were synthesized with methods identical or analogous to those shown herein. The requisite starting materials were commercially available, described in the literature, or readily synthesized by one skilled in the art of organic synthesis. The compound number given in Table I corresponds to the compound number in Table II and the structure given therein.
Human mGluR5a cDNA in pCMV6-XL6 mammalian expression plasmid was purchased from OriGene Technologies, Inc. (catalogue number SC326357) and subcloned into pcDNA3.1(−). Human embryonic kidney (HEK) 293A cells were then transfected with human mGluR5a pcDNA3.1(−) using LipofectAmine-2000 (Invitrogen) and monoclones were selected and tested for functional response using a Ca^2+ mobilization assay. Monoclones were named for the species (“H” for human) plus the location on the plate (e.g. “10H”).
HEK cells transfected with the human mGluR5a receptor (H10H or H12H cell line) were plated at 15,000 cells/well in clear-bottomed poly-D-lysine-coated assay plates (BD Falcon) in glutamate-glutamine-free growth medium and incubated overnight at 37° C. and 5% CO2.

T1 sequence (P41594 21-1180 isoform P41594-2 limits assumed): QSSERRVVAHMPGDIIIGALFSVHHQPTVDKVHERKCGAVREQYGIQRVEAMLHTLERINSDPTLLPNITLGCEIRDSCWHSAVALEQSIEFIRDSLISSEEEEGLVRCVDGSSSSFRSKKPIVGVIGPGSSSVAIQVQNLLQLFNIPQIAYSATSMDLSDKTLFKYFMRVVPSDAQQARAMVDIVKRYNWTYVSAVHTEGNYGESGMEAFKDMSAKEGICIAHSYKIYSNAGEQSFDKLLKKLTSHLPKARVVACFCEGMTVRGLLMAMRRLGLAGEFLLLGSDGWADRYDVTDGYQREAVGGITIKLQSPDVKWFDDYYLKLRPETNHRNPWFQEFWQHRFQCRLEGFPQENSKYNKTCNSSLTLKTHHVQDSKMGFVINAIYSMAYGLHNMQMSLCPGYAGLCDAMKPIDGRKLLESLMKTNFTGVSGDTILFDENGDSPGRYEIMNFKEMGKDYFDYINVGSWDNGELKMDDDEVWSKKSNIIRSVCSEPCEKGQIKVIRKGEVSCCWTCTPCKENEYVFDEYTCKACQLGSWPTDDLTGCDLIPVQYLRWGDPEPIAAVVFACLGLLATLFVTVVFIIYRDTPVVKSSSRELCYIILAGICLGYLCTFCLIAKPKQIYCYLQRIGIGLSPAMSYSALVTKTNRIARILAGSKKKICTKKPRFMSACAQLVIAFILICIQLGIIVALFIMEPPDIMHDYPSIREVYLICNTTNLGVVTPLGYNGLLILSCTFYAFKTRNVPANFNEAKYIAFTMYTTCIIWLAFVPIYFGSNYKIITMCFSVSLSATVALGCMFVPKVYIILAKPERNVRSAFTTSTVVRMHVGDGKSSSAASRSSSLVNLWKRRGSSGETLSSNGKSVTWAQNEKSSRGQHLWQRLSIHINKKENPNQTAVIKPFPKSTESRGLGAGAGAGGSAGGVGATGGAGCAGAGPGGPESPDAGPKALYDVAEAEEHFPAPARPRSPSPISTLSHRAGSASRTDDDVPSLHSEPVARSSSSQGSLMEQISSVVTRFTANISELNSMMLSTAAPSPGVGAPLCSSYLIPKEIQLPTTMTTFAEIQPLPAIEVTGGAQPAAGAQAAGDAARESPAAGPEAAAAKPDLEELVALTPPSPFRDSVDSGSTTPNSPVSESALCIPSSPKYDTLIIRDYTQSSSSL

Structure (SMILES) | pEC50 | EC50 | Emax (%) | Emax
Cc1ccc(F)cc1N1CCn2nc(COc3ccccc3)cc2C1=O [Example 61] | 7.19 | 0.065 µM | 68% | 
Cc1ccc(N2CCn3nc(COc4ccccc4)cc3C2=O)cc1F [Example 62] | 7.27 | 0.053 µM | 60% | 
COCc1ccccc1N1CCn2nc(COc3ccccc3)cc2C1=O [Example 63] | 6.37 | 0.43 µM | 68% | 
O=C1c2cc(COc3ccccc3)nn2CCN1c1cccc(C2CC2)n1 [Example 66] | 7.03 | 0.093 µM | 72% | 
COc1nc(N2CCn3nc(COc4ccccc4)cc3C2=O)ccc1F [Example 73] | 7.64 | 0.023 µM | 67% | 
O=C1c2cc(COc3ccccc3)nn2CCN1c1cccc(CCF)n1 [Example 75] | 6.69 | 0.204 µM | 68% | 
O=C1c2cc(COc3ccccc3)nn2CCN1c1ncccn1 [Example 77] | <5.00 | > 10 µM | 42% | 
COc1cccnc1N1CCn2nc(COc3ccccc3)cc2C1=O [Example 79] | 5.66 | 2.19 µM | 48% | 
O=C1c2cc(COc3ccccc3)nn2CCN1c1ncccc1F [Example 81] | 6.26 | 0.55 µM | 67% | 
Cc1ccnc(N2CCn3nc(COc4ccccc4)cc3C2=O)n1 [Example 82] | 5.81 | 1.55 µM | 61% | 
COCCOc1cccc(N2CCn3nc(COc4ccccc4)cc3C2=O)n1 [Example 85] |  | 0.437 µM |  | 72%
Cc1cc(F)cnc1N1CCn2nc(COc3ccccc3)cc2C1=O [Example 86] | 6.69 | 0.204 µM | 73% | 
Cc1ccc(F)c(N2CCn3nc(COc4ccccc4)cc3C2=O)n1 [Example 88] | 6.75 | 0.178 µM | 72% | 
COc1ccc(N2CCn3nc(COc4ccccc4)cc3C2=O)nn1 [Example 89] | <5.00 | > 10 µM | 75% | 
COc1nc(N2CCn3nc(COc4ccccc4)cc3C2=O)ncc1F [Example 91] | 7.19 | 0.065 µM | 71% | 
Cc1cncc(N2CCn3nc(COc4ccccc4)cc3C2=O)n1 [Example 92] | 6.51 | 0.309 µM | 71% | 
Cc1cnnc(N2CCn3nc(COc4ccccc4)cc3C2=O)c1 [Example 93] | <4.52 | > 30.2 µM | 29% | 
Cc1nccc(N2CCn3nc(COc4ccccc4)cc3C2=O)n1 [Example 94] | 6.29 | 0.513 µM | 65% | 
N#Cc1cccc(N2CCn3nc(COc4ccccc4)cc3C2=O)n1 [Example 95] | 6.82 | 0.15 µM | 54% | 
COc1nc(N2CCn3nc(COc4ccccc4)cc3C2=O)ncc1C [Example 97] | 7.01 | 0.098 µM | 68% | 
COc1nc(C)cc(N2CCn3nc(COc4ccccc4)cc3C2=O)n1 [Example 98] | 6.13 | 0.741 µM | 63% | 
COc1cnc(N2CCn3nc(COc4ccccc4)cc3C2=O)cn1 [Example 101] | 6.53 | 0.295 µM | 78% | 
COc1nccnc1N1CCn2nc(COc3ccccc3)cc2C1=O [Example 103] | 7.03 | 0.093 µM | 72% | 
COc1ncc(C)c(N2CCn3nc(COc4ccccc4)cc3C2=O)n1 [Example 106] |  | 0.389 µM |  | 53%
COc1ccc(C)c(N2CCn3nc(COc4ccccc4)cc3C2=O)n1 [Example 109] | 7.13 | 0.074 µM | 63% | 

Structure (SMILES) | pEC50 | EC50 | Emax (%) | Emax
COc1nccc(N2CCn3nc(COc4ccccc4)cc3C2=O)n1 [Example 110] | 6.70 | 0.2 µM | 68% | 
COc1cncc(N2CCn3nc(COc4ccccc4)cc3C2=O)n1 [Example 112] | 6.98 | 0.105 µM | 69% | 
COc1ncncc1N1CCn2nc(COc3ccccc3)cc2C1=O [Example 113] |  | 0.724 µM |  | 57%
COc1ccnc(N2CCn3nc(COc4ccccc4)cc3C2=O)c1 [Example 115] | 5.96 | 1.1 µM | 66% | 
COc1cncnc1N1CCn2nc(COc3ccccc3)cc2C1=O [Example 118] | 5.69 | 2 µM | 67% | 
COc1cnc(C)nc1N1CCn2nc(COc3ccccc3)cc2C1=O [Example 119] |  | 2.3 µM |  | 72%
COc1cc(N2CCn3nc(COc4ccccc4)cc3C2=O)nc(OC)n1 [Example 122] | 6.91 | 0.12 µM | 61% | 
COc1cnnc(N2CCn3nc(COc4ccccc4)cc3C2=O)c1 [Example 125] |  | > 10 µM |  | 48%
COc1cc(OC)nc(N2CCn3nc(COc4ccccc4)cc3C2=O)n1 [Example 127] | 6.68 | 0.21 µM | 63% | 
CC1Cn2nc(COc3ccccc3)cc2C(=O)N1CC1CC1 (stereo not drawn) [Example 136] | 6.13 | 0.741 µM | 56% | 
CC1Cn2nc(COc3ccccc3)cc2C(=O)N1c1ccc(F)cn1 (stereo not drawn) [Example 139] | 6.05 | 0.891 µM | 43% | 
CC1Cn2nc(COc3ccccc3)cc2C(=O)N1c1ccc(F)cc1 (stereo not drawn) [Example 142] | 7.19 | 0.065 µM | 68% | 
COc1nccc(N2C(=O)c3cc(COc4ccccc4)nn3CC2C)n1 (stereo not drawn) [Example 145] | 5.85 | 1.41 µM | 59% | 
COc1nc(N2C(=O)c3cc(COc4ccccc4)nn3CC2C)ncc1F (stereo not drawn) [Example 147] | 6.27 | 0.537 µM | 72% | 
Cc1cccc(N2C(=O)c3cc(COc4ccccc4)nn3CC2C)c1 (stereo not drawn) [Example 153] | 7.22 | 0.06 µM | 71% | 
CC1Cn2nc(COc3ccccc3)cc2C(=O)N1c1ccc(F)cc1 (stereo not drawn) [Example 157] | 6.24 | 0.575 µM | 63% | 
O=C1c2cc(COc3cccnc3)nn2CCN1c1ccc(F)cc1 [Example 158] |  | 3.09 µM |  | 69%
O=C1c2cc(COc3ccccn3)nn2CCN1c1ccc(F)cc1 [Example 159] | 6.32 | 0.479 µM | 69% | 
O=C1c2cc(COc3cncc(F)c3)nn2CCN1c1ccc(F)cc1 [Example 161] |  | 1.32 µM |  | 68%
O=C1c2cc(COc3ccccn3)nn2CCN1CC1CC1 [Example 162] |  | 2.51 µM |  | 47%
O=C1c2cc(COc3ccncc3)nn2CCN1CC1CC1 [Example 163] |  | 2.24 µM |  | 63%
N#Cc1cccc(OCc2cc3n(n2)CCN(CC2CC2)C3=O)c1 [Example 164] | <4.52 | > 30.2 µM | 28% | 
O=C1c2cc(COc3ccc(F)cc3)nn2CCN1c1ccc(F)cc1 [Example 165] | 6.98 | 0.105 µM | 71% | 
O=C1c2cc(COc3ccc(F)cc3)nn2CCN1CC1CC1 [Example 167] | 6.58 | 0.263 µM | 64% | 
